Measured values from PMC12109337, “Engineered Fluorescent Variants of Lactadherin C2 Domain for Phosphatidylserine Detection in Flow Cytometry” (Biomolecules, 2025).

Columns and labels:
[1] = target: T1, mNG-lactC2 (Bos taurus, UniProt Q95114); test: equilibrium binding to liposomes, flow cytometry; settings: 20:80 PS/PC liposomes, not free lipid; Kd is the protein concentration at half occupation; Hill coefficient ~1.2; HBS pH 7.4, no calcium; 1 h; read-out: Kd (apparent, Hill)
T1 construct: gene MFGE8; C2 domain (residues 270-427), N-terminal 6xHis and mNeonGreen fusion kept, pET-28a(+), E. coli Rosetta-Gami 2(DE3)pLysS, Ni-NTA
T1 sequence (Q95114 270-427): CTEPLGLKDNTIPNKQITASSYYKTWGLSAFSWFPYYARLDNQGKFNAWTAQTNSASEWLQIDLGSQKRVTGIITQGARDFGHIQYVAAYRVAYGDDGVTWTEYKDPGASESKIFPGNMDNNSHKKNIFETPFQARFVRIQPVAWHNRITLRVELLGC

[2] = target: T2, axV-mNG (Homo sapiens, UniProt P08758); test: equilibrium binding to liposomes, flow cytometry; settings: 20:80 PS/PC liposomes, not free lipid; Kd is the protein concentration at half occupation; Hill coefficient ~1.2; HBS pH 7.4 with 2.5 mM CaCl2; 1 h; read-out: Kd (apparent, Hill)
T2 construct: gene ANXA5; N-terminal 6xHis, annexin V with C-terminal mNeonGreen fusion (also printed mNG-axV), tags kept, pET-28a(+), E. coli Rosetta-Gami 2(DE3)pLysS, Ni-NTA
T2 sequence (P08758 2-320): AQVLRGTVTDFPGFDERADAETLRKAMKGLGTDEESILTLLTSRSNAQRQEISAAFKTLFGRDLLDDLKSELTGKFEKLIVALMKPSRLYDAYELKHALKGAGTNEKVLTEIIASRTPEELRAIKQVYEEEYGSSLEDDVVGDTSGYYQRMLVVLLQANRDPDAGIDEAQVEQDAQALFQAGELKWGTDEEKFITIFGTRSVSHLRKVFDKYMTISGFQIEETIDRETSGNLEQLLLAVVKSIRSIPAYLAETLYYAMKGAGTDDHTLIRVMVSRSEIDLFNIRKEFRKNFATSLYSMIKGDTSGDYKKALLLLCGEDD

- Kd [1]: 0.107 µM
- Kd [2]: 0.01 µM
Substance: 1,2-diacyl-sn-glycero-3-phospho-L-serine [phosphatidylserine]
